Laboratory results published in US8466186B2, “Compounds” (Boehringer Ingelheim International GmbH, priority 2010, dated 2013).

target: T1, recombinant human mPGES-1 (Homo sapiens, UniProt O14684); assay: Assay A: mPGES-1 enzyme assay (HTRF detection of PGE2); format: biochemical; details: biological assay A; microsomes from E. coli expressing recombinant human mPGES-1; read-out: mPGES-1 inhibitory effect IC50
T1 construct: made in house; host or cells: Rosetta E. coli (membrane/microsome fraction)
T1 sequence (O14684 1-152): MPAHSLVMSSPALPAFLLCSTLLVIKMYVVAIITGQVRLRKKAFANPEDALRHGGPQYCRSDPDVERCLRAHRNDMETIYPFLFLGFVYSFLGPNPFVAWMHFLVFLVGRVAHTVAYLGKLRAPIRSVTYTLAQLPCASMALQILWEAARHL
Source text: The aim of this assay is to determine the affinity of a test compound for the mPGES-1 enzyme.
• 1. Riendeau, D., R. Aspiotis, D. Ethier, Y. Gareau, E. Grimm, J. Guay, S. Guiral, H. Juteau, J. Mancini, N. Methot, J. Rubin, and R. Friesen, Inhibitors of the inducible microsomal prostaglandin E2 synthase (mPGES-1) derived from MK-886. Bioorg Med Chem Lett, 2005. 15(14): p. 3352-3355. • 2. Cote, B., L. Boulet, C. Brideau, D. Claveau, D. Ethier, R. Frenette, M. Gagnon, A. Giroux, J. Guay, S. Guiral, J. Mancini, E. Martins, F. Masse, N. Methot, D. Riendeau, J. Rubin, D. Xu, H. Yu, Y. Ducharme, and R. Friesen, Substituted phenanthrene imidazoles as potent, selective, and orally active mPGES-1 inhibitors. Bioorg Med Chem Lett, 2007. 17(24): p. 6816-6820. Assay A: mPGES-1 Enzyme Assay List of Reagents Used: • Glutathione (Sigma, G-4251) • Freeze culture in Rosetta E coli expression strain. • LB growth media with Ampillicillin (Amp) final concentration in culture 50 μg/mL • Chloroamphenicol stock 34 mg/mL (chloro) final concentration in culture 34 μg/mL • Sterile growth flasks for 500 mL-1 liter cultures • 0.1 M KP, buffer pH 7.4 • 9.25% HCl • PGH2 (0.25 mM) • Fe (II) Cl2 tetrahydrate, 99% (Sigma, 220229) • 384-well plate with compounds • 96-well plate, polypropylene (Thermo fast 96 skirted VWR) • 384-well plate polypropylene PCR plate (Greiner 785201) • Greiner 384-well plate pp (In vitro cat. no. 781280) • Adhesive sealing film for 96-well plates (Sigma-Aldrich) • Aluminium foil (PCR foil, 310-0030-127-471 from Labora) • PBS (GIBCO 14040) • Prostaglandin E2 Assay (Cisbio, cat. no. 62P2APEC) • Biomek FX robot (Beckman Coulter) • Biomek NX robot (Beckman Coulter) • Multidrop; micro or combi (ThermoLabsystems) • Plate reader: Safire2 (Tecan)
Microsomes from Rosetta E. coli bacteria expressing recombinant human mPGES-1 can be derived as described below:
Inoculate 5 mL LB with Amp and Chloro with bacteria from freeze culture. Incubate overnight at 37° C. with 200 rpm. Thereafter, inoculate 500-800 mL LB containing Amp and Chloro with the 5 mL on culture and grow to OD640 of 0.6-0.8. Chill the culture to +4° C. before induction. Induce the culture with IPTG at a final concentration of 400 μM. Express the protein at room temp 18-23° C. with 200 rpm shaking overnight.
The following steps can be performed on the following day: • 1. Spin down the cells in 250 mL centrifuge flasks for 15 min at 7000 rpm • 2. Dissolve the pellet from 250 mL culture in 12.5 mL homogenization buffer • 3. Disintegrate the cells by sonication, 4×10 seconds at 35% amplitude • 4. Add 2.5 mL MgCl2 (100 mM) and DNase 12.5 μL (0.8 mg/mL) and incubate on ice for 30 min • 5. Spin down the bacteria debris and save the supernatant, 7000 rpm for 15 min • 6. Isolate the protein containing membranes in the supernatant by ultracentrifugation 45000×g for 1 hour. • 7. Discard the supernatant and dissolve the pellet in 20 mM KPi buffer and aliquot the enzyme and store aliquots at −80° C.
Before each experiment is performed an aliquot of the enzyme is thawed and it can then be dissolved in 0.1 M KP, pH 7.4 buffer containing 2.5 mM GSH. 50 μL of this enzyme solution is subsequently dispensed in a 384-well plate at room temperature. 0.5 μL of the inhibitor dissolved in DMSO is thereafter added to each well and incubated for 25 minutes at room temperature. Subsequently, 2 μL of PGH2 dissolved in an appropriate solvent is added to each well and after one minute at room temperature, the acidified stop solution containing FeCl2 is added. 4 μL of the total volume is transferred to a separate plate and diluted 750-fold in two separate steps before quantification of PGE2.
In order to quantitate the amount of PGE2 that has been formed, a homogenous time resolved fluorescent (HTRF) detection of PGE2 can be performed by the use of a commercially available kit from CisBio essentially according to the manufacturer's protocol. […]

SMILES | IC50
Cn1c(Nc2cc(CNC(=O)C3(C)CCCCC3)ccc2Cl)nc2ccc(N3CCCC3)cc21 [Example 123] | 0.029 µM
Cn1c(Nc2cc(CNC(=O)C3(C(F)(F)F)CC3)ccc2F)nc2cc(Cl)c(N3CCC(F)(F)CC3)cc21 [Example 112] | 0.022 µM
Cn1c(Nc2cc(CNC(=O)C(C)(F)F)ccc2C(F)(F)F)nc2cc(Cl)c(N3CCC(C(F)(F)F)CC3)cc21 [Example 106] | 0.0057 µM
CC(=O)N1CCN(c2cc3c(cc2Cl)nc(Nc2cc(CNC(=O)C4(C(F)(F)F)CC4)ccc2Cl)n3C)CC1 [Example 73] | 0.061 µM
Cn1c(Nc2cc(CNC(=O)C(C)(F)F)ccc2Cl)nc2cc(Cl)c(N3CCC(c4ccccc4)CC3)cc21 [Example 95] | 0.0021 µM
CCC(C)(CC)C(=O)NCc1ccc(Cl)c(Nc2nc3cc(N4CCCC4)ccc3[nH]2)c1 [Example 16] | 0.015 µM
Cn1c(Nc2cc(CNC(=O)C3(C(F)(F)F)CC3)c(F)cc2Cl)nc2cc(Cl)c(N3CCC(C)(C)CC3)cc21 [Example 115] | 0.0092 µM
CC1(C(=O)NCc2ccc(Cl)c(Nc3nc4ccc(N5CCCC5)cc4[nH]3)c2)CCCCC1 [Example 118] | 0.053 µM
Cn1c(Nc2cc(CNC(=O)c3c(F)cccc3Cl)ccc2C(F)(F)F)nc2cc(Cl)c(N3CCC(C(F)(F)F)CC3)cc21 [Example 103] | 0.002 µM
COC1CCN(c2cc3c(cc2Cl)nc(Nc2cc(CNC(=O)C4(C(F)(F)F)CC4)ccc2Cl)n3C)CC1 [Example 77] | 0.01 µM
Cn1c(Nc2cc(CNC(=O)C(C)(F)F)ccc2Cl)nc2cc(Cl)c(N3CCC(C(F)(F)F)CC3)cc21 [Example 94, N-{4-Chloro-3-[5-chloro-1-methyl-6-(4-trifluoromethyl-piperidin-1-yl)-1H-benzimidazol-2-ylamino]-benzyl}-2,2-difluoro-propionamide] | 0.0035 µM
Cn1c(Nc2cc(CNC(=O)C3(C(F)(F)F)CC3)ccc2Cl)nc2cc(Cl)c(N3CCN(c4ccc(C(F)(F)F)cc4)CC3)cc21 [Example 83, N-{4-Chloro-3-[5-chloro-1-methyl-6-(4-(4-trifluoromethylphenyl)-piperazin-1-yl)-1H-benzimidazol-2-ylamino]-benzyl}-1-trifluoromethyl-cyclopropanamide] | 0.0013 µM
Cn1c(Nc2cc(CNC(=O)C3(C(F)(F)F)CC3)ccc2Cl)nc2cc(Cl)c(N3CCC(c4ccc(F)cc4)CC3)cc21 [Example 91] | 0.0036 µM
CC(C)N1CCN(c2cc3c(cc2Cl)nc(Nc2cc(CNC(=O)C4(C(F)(F)F)CC4)ccc2Cl)n3C)CC1 [Example 125] | 0.032 µM
CC(C)(C)C(=O)NCc1ccc(Cl)c(Nc2nc3cc(N4CCCC4)ccc3[nH]2)c1 [Example 20] | > 0.1 µM
Cn1c(Nc2c(Cl)ccc(CNC(=O)C(C)(C)C)c2Cl)nc2cc(Cl)c(N3CCC(C(F)(F)F)CC3)cc21 [Example 5, N-{2,4-Dichloro-3-[5-chloro-1-methyl-6-(4-trifluoromethyl-piperidin-1-yl)-1H-benzimidazol-2-ylamino]-benzyl}-2,2-dimethyl-propionamide] | 0.0038 µM
Cn1c(Nc2cc(CNC(=O)C3(C(F)(F)F)CC3)ccc2Cl)nc2cc(Cl)c(N3CCC(C)(C)CC3)cc21 [Example 78] | 0.0017 µM
Cn1c(Nc2cc(CNS(=O)(=O)C(C)(C)C)ccc2Cl)nc2cc(Cl)c(N3CCC(C(F)(F)F)CC3)cc21 [Example 99, N-(4-Chloro-3-(5-chloro-1-methyl-6-(4-trifluoromethyl-piperidin-1-yl)-1H-benzo[d]imidazol-2-ylamino)benzyl)-2-methylpropane-2-sulfonamide] | 0.004 µM
Cn1c(Nc2cc(CNC(=O)C3(C(F)(F)F)CC3)ccc2Cl)nc2cc(Cl)c(N3CCC(c4ccccc4)CC3)cc21 [Example 76, N-{4-Chloro-3-[5-chloro-1-methyl-6-(4-phenyl-piperidin-1-yl)-1H-benzimidazol-2-ylamino]-benzyl}-1-trifluoromethyl-cyclopropanamide] | 0.0031 µM

The next lines start with the values.

IC50 | SMILES
0.015 µM | N#Cc1cc2nc(Nc3cc(CNC(=O)C4(C(F)(F)F)CC4)ccc3Cl)[nH]c2cc1N1CCCC(C(F)(F)F)C1 (stereo not drawn) [Example 130]
0.0073 µM | Cn1c(Nc2cc(CNC(=O)C3(C(F)(F)F)CC3)ccc2Cl)nc2cc(F)c(N3CCC(C(F)(F)F)CC3)c(F)c21 [Example 84, N-{4-Chloro-3-[5,7-difluoro-1-methyl-6-(4-trifluoromethyl-piperidin-1-yl)-1H-benzimidazol-2-ylamino]-benzyl}-1-trifluoromethyl-cyclopropanamide]
0.0024 µM | Cn1c(Nc2cc(CNC(=O)C3(C(F)(F)F)CC3)ccc2Cl)nc2cc(Cl)c(N3CCC(F)(F)CC3)cc21 [Example 79]
0.054 µM | CN(C)CCn1c(Nc2cc(CNC(=O)C3(C(F)(F)F)CC3)ccc2Cl)nc2cc(Cl)c(N3CCC(C(F)(F)F)CC3)cc21 [Example 80]
0.017 µM | N#Cc1c(N2CCCC(C(F)(F)F)C2)ccc2nc(Nc3cc(CNC(=O)C4(C(F)(F)F)CC4)ccc3Cl)[nH]c12 (stereo not drawn) [Example 93, N-{4-Chloro-3-[4-cyano-5-(3-trifluoromethyl-piperidin-1-yl)-1H-benzimidazol-2-ylamino]-benzyl}-1-trifluoromethyl-cyclopropanamide]
0.0048 µM | Cn1c(Nc2cc(CNC(=O)C(C)(O)C(F)(F)F)ccc2Cl)nc2cc(Cl)c(N3CCCC(C(F)(F)F)C3)cc21 (stereo not drawn) [Example 14]
0.0061 µM | O=C(NCc1ccc(Cl)c(Nc2nc3cc(Cl)c(N4CCC(C(F)(F)F)CC4)cc3n2CC(F)(F)F)c1)C1(C(F)(F)F)CC1 [Example 89]
0.025 µM | COC[C@@H]1CCCN1c1cc2[nH]c(Nc3cc(CNC(=O)C4(C(F)(F)F)CC4)ccc3Cl)nc2cc1Cl [Example 133, (S)—N-{4-Chloro-3-[5-chloro-6-(2-methoxymethyl-pyrrolidin-1-yl)-1H-benzo[d]imidazol-2-ylamino]benzyl}-1-trifluoromethyl-cyclopropanecarboxamide]
0.024 µM | CC(C)(C(=O)NCc1ccc(Cl)c(Nc2nc3cc(N4CCCC4)ccc3[nH]2)c1)C(F)(F)F [Example 17]
0.12 µM | CC(C)(C)C(=O)NCc1ccc(OC(F)(F)F)c(Nc2nc3cc(C#N)c(N4CCCC(C(F)(F)F)C4)cc3[nH]2)c1 (stereo not drawn) [Example 117, N-{3-(5-Cyano-6-[3-trifluoromethyl-piperidin-1-yl)-1H-benzo[d]imidazol-2-ylamino]-4-trifluoromethoxy-benzyl}-2,2-dimethyl-propionamide]
0.009 µM | Cn1c(Nc2cc(CNC(=O)c3c(F)cccc3C(F)(F)F)ccc2Cl)nc2cc(Cl)c(N3CCCC(C(F)(F)F)C3)cc21 (stereo not drawn) [Example 69]
0.026 µM | N#Cc1cc2nc(Nc3cc(CNC(=O)C4(C(F)(F)F)CC4)ccc3Cl)[nH]c2cc1N1CCCC1 [Example 127]
0.144 µM | CC(=O)N1CCN(c2cc3[nH]c(Nc4cc(CNC(=O)C5(C(F)(F)F)CC5)ccc4Cl)nc3cc2Cl)CC1 [Example 74]
0.634 µM | CN1CCN(c2cc3[nH]c(Nc4cc(CNC(=O)C5(C(F)(F)F)CC5)ccc4Cl)nc3cc2Cl)CC1 [Example 129]
